Experimental data: ChEMBL document CHEMBL1908105, “UDP-glucuronosyltransferases and clinical drug-drug interactions” (Pharmacol Ther, 2005)
Values joined by “and” are separate entries in the source; they are usually repeats but may differ in a detail not shown here. Identical values can stand only once.

Tests used:
[1] = Inhibition of codeine glucuronidation by human UGT enzymes from liver microsomes; design: species or system Microsome
[2] = Inhibition of AZT glucuronidation by human UGT enzymes from liver microsomes; design: species or system Microsome
[3] = Inhibition of 4-methylumbelliferone glucuronidation by human UGT enzymes from liver microsomes; design: species or system Microsome
[4] = Inhibition of morphine (3-O-glucuronidation) glucuronidation by human UGT enzymes from liver microsomes; design: species or system Microsome
[5] = Inhibition of morphine (6-O-glucuronidation) glucuronidation by human UGT enzymes from liver microsomes; design: species or system Microsome
[6] = Inhibition of ciramadol glucuronidation by human UGT enzymes from liver microsomes; design: species or system Microsome
[7] = Inhibition of morphine glucuronidation by human UGT enzymes from liver microsomes; design: species or system Microsome
[8] = target: T1, UGT2B7 (Homo sapiens, UniProt P16662); experiment: (§1) Drug glucuronidation reaction catalyzed by human recombinant UGT2B7; conditions: recombinant UGT2B7
T1 sequence (P16662 whole entry): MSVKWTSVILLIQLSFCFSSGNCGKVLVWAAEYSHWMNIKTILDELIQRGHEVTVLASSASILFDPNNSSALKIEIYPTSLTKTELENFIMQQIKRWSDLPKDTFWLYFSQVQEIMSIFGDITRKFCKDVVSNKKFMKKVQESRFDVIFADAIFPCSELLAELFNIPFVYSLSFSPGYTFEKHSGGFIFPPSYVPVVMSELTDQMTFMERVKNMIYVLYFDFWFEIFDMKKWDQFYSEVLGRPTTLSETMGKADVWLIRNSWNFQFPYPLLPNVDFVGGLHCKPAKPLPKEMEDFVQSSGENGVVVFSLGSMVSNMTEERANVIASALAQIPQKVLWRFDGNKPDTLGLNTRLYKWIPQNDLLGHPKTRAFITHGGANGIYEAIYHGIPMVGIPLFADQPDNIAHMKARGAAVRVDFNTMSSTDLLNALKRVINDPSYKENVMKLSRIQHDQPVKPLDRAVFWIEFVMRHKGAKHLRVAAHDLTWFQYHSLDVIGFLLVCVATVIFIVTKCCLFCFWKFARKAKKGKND

[9] = target: T2, UDP-glucuronosyltransferase 2B7 (Homo sapiens, UniProt P16662); experiment: as §1
T2 sequence (P16662 whole entry): T1 sequence (P16662 whole entry)

[10] = target: T3, UDP-glucuronosyltransferase 1A4 (Homo sapiens, UniProt P22310); experiment: Drug glucuronidation reaction catalyzed by human recombinant UGT1A4
T3 sequence (P22310 whole entry): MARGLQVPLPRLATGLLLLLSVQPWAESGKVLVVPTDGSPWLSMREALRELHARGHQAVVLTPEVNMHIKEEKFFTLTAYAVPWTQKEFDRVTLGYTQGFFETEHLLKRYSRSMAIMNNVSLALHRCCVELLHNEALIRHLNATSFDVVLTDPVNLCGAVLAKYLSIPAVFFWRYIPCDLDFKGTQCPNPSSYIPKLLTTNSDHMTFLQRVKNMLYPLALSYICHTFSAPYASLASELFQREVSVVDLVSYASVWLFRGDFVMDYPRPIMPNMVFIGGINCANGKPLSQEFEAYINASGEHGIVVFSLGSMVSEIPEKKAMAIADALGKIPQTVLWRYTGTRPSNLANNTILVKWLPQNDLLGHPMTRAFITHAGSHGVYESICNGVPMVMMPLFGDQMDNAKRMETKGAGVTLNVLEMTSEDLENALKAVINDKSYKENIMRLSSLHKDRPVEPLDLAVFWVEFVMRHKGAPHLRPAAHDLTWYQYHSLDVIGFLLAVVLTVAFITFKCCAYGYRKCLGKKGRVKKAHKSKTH

[11] = target: T4, UDP-glucuronosyltransferase 1A3 (Homo sapiens, UniProt P35503); experiment: Drug glucuronidation reaction catalyzed by human recombinant UGT1A3
T4 sequence (P35503 whole entry): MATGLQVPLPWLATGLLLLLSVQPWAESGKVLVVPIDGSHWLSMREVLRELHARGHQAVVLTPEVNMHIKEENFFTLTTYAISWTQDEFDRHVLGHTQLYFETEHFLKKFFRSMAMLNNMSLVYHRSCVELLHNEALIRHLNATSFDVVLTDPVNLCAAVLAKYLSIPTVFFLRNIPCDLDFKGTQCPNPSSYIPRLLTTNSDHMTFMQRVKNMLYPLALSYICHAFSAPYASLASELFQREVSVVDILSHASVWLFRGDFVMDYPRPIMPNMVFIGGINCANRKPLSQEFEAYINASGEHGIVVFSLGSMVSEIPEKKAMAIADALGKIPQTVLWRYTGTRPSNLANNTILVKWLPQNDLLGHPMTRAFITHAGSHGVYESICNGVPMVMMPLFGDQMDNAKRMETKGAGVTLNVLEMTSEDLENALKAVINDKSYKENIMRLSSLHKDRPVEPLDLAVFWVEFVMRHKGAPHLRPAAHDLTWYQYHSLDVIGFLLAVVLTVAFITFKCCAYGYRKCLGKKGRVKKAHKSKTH

[12] = Inhibition of mycophenolic acid (0.5 mM) glucuronidation by human kidney microsomes; design: species or system Microsome
[13] = Inhibition of mycophenolic acid (1 mM) glucuronidation by human UGT enzymes from liver microsomes; design: species or system Microsome
[14] = substrate: COc1c(C)c2c(c(O)c1C/C=C(\C)CCC(=O)O)C(=O)OC2; experiment: (§2) Drug glucuronidation reaction catalyzed by human recombinant UGT1A7
[15] = substrate: CCc1c2c(nc3ccc(O)cc13)-c1cc3c(c(=O)n1C2)COC(=O)[C@]3(O)CC; experiment: as §2
[16] = substrate: CCc1c2c(nc3ccc(O)cc13)-c1cc3c(c(=O)n1C2)COC(=O)[C@]3(O)CC; experiment: (§3) Drug glucuronidation reaction catalyzed by human recombinant UGT1A6
[17] = substrate: CN1CC[C@]23c4c5ccc(O[C@@H]6O[C@H](C(=O)O)[C@@H](O)[C@H](O)[C@H]6O)c4O[C@H]2[C@@H](O)C=C[C@H]3[C@H]1C5; experiment: as §3

For `CCCCC1C(=O)N(c2ccccc2)N(c2ccccc2)C1=O` [PHENYLBUTAZONE], the Ki [1] was 1700 µM and the Ki [2] was 1400 µM.

Work on `Cc1noc(NS(=O)(=O)c2ccc(N)cc2)c1C` [SULFISOXAZOLE] yielded a Ki [2] of 47000 µM.

With `CN1C(=O)C(O)N=C(c2ccccc2)c2cc(Cl)ccc21` (configuration not stated) [TEMAZEPAM] the Ki [2] was 580 µM and the Ki [3] was 217 µM.

Molecule `CN(C)CCCN1c2ccccc2CCc2ccc(Cl)cc21` [CLOMIPRAMINE] has a Ki [4] of 90 µM and a Ki [5] of 56 µM.

Work on `COc1ccc2c(c1)c(CC(=O)O)c(C)n2C(=O)c1ccc(Cl)cc1` [INDOMETHACIN] yielded a Ki [2] of 200 µM.

With `O=C1Nc2ccc(Cl)cc2C(c2ccccc2Cl)=NC1O` (configuration not stated) [LORAZEPAM] the Ki [6] was 140 µM, the Ki [2] was 160 µM and the Ki [7] was 160 µM.

Molecule `CN1C(=O)CN=C(c2ccccc2)c2cc(Cl)ccc21` [DIAZEPAM] has a Ki [1] of 180 µM, a Ki [6] of 40 µM and a Ki [2] of 300 µM. For the same molecule, the Ki [7] was 120 µM.

`Cc1cc(CC(=O)O)n(C)c1C(=O)c1ccc(Cl)cc1` [ZOMEPIRAC] gave a Ki [2] of 2100 µM.

Molecule `Cc1cn([C@H]2C[C@H](N=[N+]=[N-])[C@@H](CO)O2)c(=O)[nH]c1=O` [ZIDOVUDINE] has a Km [8] of 770 µM and a Vmax [9] of 210 pmol/min/mg protein.

Work on `O=C1C(CC[S+]([O-])c2ccccc2)C(=O)N(c2ccccc2)N1c1ccccc1` (configuration not stated) [SULFINPYRAZONE] yielded a Ki [2] of 2100 µM.

In the case of `CN1CCC(=C2c3ccccc3CC(=O)c3sccc32)CC1` [KETOTIFEN], the Vmax [10] is reported as 130 pmol/min/mg protein and 140 pmol/min/mg protein and the Vmax [11] is reported as 6 pmol/min/mg protein and 12 pmol/min/mg protein.

With `O=C(O)c1ccccc1Nc1cccc(C(F)(F)F)c1` [FLUFENAMIC ACID] the IC50 [12] was 13 µM and the IC50 [13] was 19 µM.

With `O=C(N[C@H](CO)[C@H](O)c1ccc([N+](=O)[O-])cc1)C(Cl)Cl` [CHLORAMPHENICOL] the Ki [1] was 270 µM, the Ki [2] was 250 µM and the Ki [7] was 980 µM.

Molecule `CN1C(=O)CN=C(c2ccccc2F)c2cc([N+](=O)[O-])ccc21` [FLUNITRAZEPAM] has a Ki [2] of 190 µM.

`Cc1cccc(Nc2ccccc2C(=O)O)c1C` [MEFENAMIC ACID] showed an IC50 [12] of 49 µM and an IC50 [13] of 63 µM.

In the case of `C#C[C@]1(O)CC[C@H]2[C@@H]3CCc4cc(O)ccc4[C@H]3CC[C@@]21C` [ETHINYL ESTRADIOL], the Ki [2] is reported as 38 µM and 150 µM.

In the case of `O=C(O)c1cc(-c2ccc(F)cc2F)ccc1O` [DIFLUNISAL], the IC50 [12] is reported as 122 µM and the IC50 [13] is reported as 109 µM.

Molecule `C=CCN1CC[C@]23c4c5ccc(O)c4O[C@H]2C(=O)CC[C@@]3(O)[C@H]1C5` [NALOXONE] has a Ki [7] of 630 µM.

`CNCCC=C1c2ccccc2CCc2ccccc21` [NORTRIPTYLINE] gave a Ki [4] of 33 µM and a Ki [5] of 27 µM.

In the case of `Nc1ccc(S(=O)(=O)c2ccc(N)cc2)cc1` [DAPSONE], the Ki [2] is reported as 1700 µM.

`CN/C(=N\CCSCc1nc[nH]c1C)NC#N` [CIMETIDINE] gave a Ki [2] of 11000 µM.

Molecule `CCOC(=O)Nc1ccc(NCc2ccc(F)cc2)cc1N` [EZOGABINE] has a Km [10] of 322 µM.

With `CN(C)CCC=C1c2ccccc2CCc2ccccc21` [AMITRIPTYLINE] the Ki [4] was 160 µM, the Ki [1] was 130 µM and the Ki [5] was 80 µM.

In the case of `COc1ccc2cc([C@H](C)C(=O)O)ccc2c1` [NAPROXEN], the Ki [2] is reported as 172 µM and 1100 µM.

Molecule `Nc1ccc(S(=O)(=O)Nc2nccs2)cc1` [SULFATHIAZOLE] has a Ki [2] of 24000 µM.

With `C[C@]12CC[C@H]3[C@@H](CCC4=CC(=O)CC[C@@]43C)[C@@H]1CC[C@@H]2O` [TESTOSTERONE] the Ki [2] was 250 µM.

With `CN(C)CCCN1c2ccccc2CCc2ccccc21` [IMIPRAMINE] the Km [10] was 310 µM and the Vmax [10] was 180 pmol/min/mg protein.

In the case of `CC(C(=O)O)c1cccc(Oc2ccccc2)c1` (configuration not stated) [FENOPROFEN], the Ki [3] is reported as 220 µM.

`O=C(O)c1cccnc1Nc1cccc(C(F)(F)F)c1` [NIFLUMIC ACID] gave an IC50 [12] of 8 µM and an IC50 [13] of 8 µM.

B1: UDP-glucuronosyltransferase 1A7 (Homo sapiens) (protein)
chain: MARAGWTGLLPLYVCLLLTCGFAKAGKLLVVPMDGSHWFTMQSVVEKLILRGHEVVVVMPEVSWQLGRSLNCTVKTYSTSYTLEDQDREFMVFADARWTAPLRSAFSLLTSSSNGIFDLFFSNCRSLFNDRKLVEYLKESCFDAVFLDPFDACGLIVAKYFSLPSVVFARGIFCHYLEEGAQCPAPLSYVPRLLLGFSDAMTFKERVWNHIMHLEEHLFCPYFFKNVLEIASEILQTPVTAYDLYSHTSIWLLRTDFVLEYPKPVMPNMIFIGGINCHQGKPVPMEFEAYINASGEHGIVVFSLGSMVSEIPEKKAMAIADALGKIPQTVLWRYTGTRPSNLANNTILVKWLPQNDLLGHPMTRAFITHAGSHGVYESICNGVPMVMMPLFGDQMDNAKRMETKGAGVTLNVLEMTSEDLENALKAVINDKSYKENIMRLSSLHKDRPVEPLDLAVFWVEFVMRHKGAPHLRPAAHDLTWYQYHSLDVIGFLLAVVLTVAFITFKCCAYGYRKCLGKKGRVKKAHKSKTH
B1 showed a Km [14] of 30 µM, a Vmax [14] of 0.00037 µmol/min/mg and a Km [15] of 5 µM. For the same molecule, the Vmax [15] was < 1e-06 µmol/min/mg.

B2: UDP-glucuronosyltransferase 1A6 (Homo sapiens) (protein)
chain: MACLLRSFQRISAGVFFLALWGMVVGDKLLVVPQDGSHWLSMKDIVEVLSDRGHEIVVVVPEVNLLLKESKYYTRKIYPVPYDQEELKNRYQSFGNNHFAERSFLTAPQTEYRNNMIVIGLYFINCQSLLQDRDTLNFFKESKFDALFTDPALPCGVILAEYLGLPSVYLFRGFPCSLEHTFSRSPDPVSYIPRCYTKFSDHMTFSQRVANFLVNLLEPYLFYCLFSKYEELASAVLKRDVDIITLYQKVSVWLLRYDFVLEYPRPVMPNMVFIGGINCKKRKDLSQEFEAYINASGEHGIVVFSLGSMVSEIPEKKAMAIADALGKIPQTVLWRYTGTRPSNLANNTILVKWLPQNDLLGHPMTRAFITHAGSHGVYESICNGVPMVMMPLFGDQMDNAKRMETKGAGVTLNVLEMTSEDLENALKAVINDKSYKENIMRLSSLHKDRPVEPLDLAVFWVEFVMRHKGAPHLRPAAHDLTWYQYHSLDVIGFLLAVVLTVAFITFKCCAYGYRKCLGKKGRVKKAHKSKTH
Molecule B2 has a Km [16] of 97 µM, a Vmax [16] of 2.8e-05 µmol/min/mg and a Km [17] of 18000 µM. For the same molecule, the Vmax [17] was 2.1e-05 µmol/min/mg.
